US20170112857A1, “Extended Release Aspirin” (New Haven Pharmaceuticals, Inc., priority 2015, published 2017)

How the values were obtained:
[1] = test system: serum 11-dehydro-thromboxane (TxB2) production; experiment: Single dose inhibition of serum TxB2 production (enzyme immunoassay); type: in vivo, human; details: highest doses: ER ASA 81 mg, 162.5 mg (Durlaza), 325 mg; IR ASA 40 mg and 81 mg
Description: Healthy adults were randomized to receive single doses of extended release ASA (“ER ASA”) at a dosage of 20 mg, 40 mg, 81 mg, 162.5 mg ER ASA (Durlaza®; New Haven Pharmaceuticals, Inc., North Haven, Conn.), or 325 mg, or immediate release ASA (“IR ASA”; aspirin powder USP; Letco Medical, Decatur, Ala.) at a dosage of 5 mg, 10 mg, 20 mg, 40 mg or 81 mg. […] For pharmacodynamic assessments, serum 11-dehydro-thromboxane (“TxB2”, a stable metabolite of thromboxane A2) levels were assessed using a validated enzyme immunoassay kit in serial blood samples collected 1 hour before dosing and at 0.5, 1, 2, 4, 8, 16, and 24 hours after drug administration.

platelet aggregation [2] = experiment: VerifyNow Aspirin Assay (ARU), turbidimetric optical detection in whole blood; type: in vivo, human; details: Visit 2 trough
Description: The VerifyNow® is a turbidimetric based optical detection system that measures platelet aggregation in the whole blood and reports the optical signals as aspirin reaction units (“ARU”). The percent change in ARU over 24 hours (“ARU24”) is calculated from 1 hour post dose using the following formulas: ARU12(%)=(([…]16(%)=(([…]1)*100 and ARU24(%)=(([…]1)*100. […] For this study the trough level data are from the following timepoints: (1) for 81 mg-the data at Visit 2; […]

platelet function = experiment: PlateletWorks platelet function at trough level; type: in vivo, human; details: Visit 2 trough
Description: The platelet function and aggregation measures at trough level were compared between the 81 mg immediate release ASA, 162.5 mg ER ASA (Durlaza®) and 325 mg ER ASA groups. For this study the trough level data are from the following timepoints: (1) for 81 mg—the data at Visit 2; (2) for 162.5 mg ER ASA (Durlaza®)—the data at Visit 3 pre-dose; and (3) for 325 mg ER ASA—the data at Visit 6 pre-dose.
This is unknown for patients with Diabetes and CVD or multiple risk factors.

endothelial function = experiment: Reactive hyperemia index (ENDOPAT pulsatile arterial tonometry); type: in vivo, human; details: for RHI < 1.67 (%): share of subjects
Description: Endothelial function was assessed using the ENDOPAT system ([…] Medical, Israel), a pulsatile arterial tonometry-based diagnostic device, at Visit 2, Visit 3, Visit 5, and Visit 6 predose. The reactive hyperemia index (“RHI”), a measure of endothelial function, and the augmentation index (“AI”), a measure of arterial stiffness, were determined. Endothelial dysfunction is defined as RHI<1.67. Normal arterial stiffness is defined as an AI -30% to -10%, increased arterial stiffness as an AI>-10% to 10%, and abnormal arterial stiffness as an AI>10%. The RHI measures vessel pliability which is a surrogate for nitric oxide production. The production of nitric oxide inhibits platelet aggregation. Thus, determining nitric oxide production following Durlaza® dosing is important to understanding its affect on platelet inhibition.

[3] = test system: High Sensitive C-Reactive Protein (hs-CRP); experiment: High Sensitive C-Reactive Protein (hs-CRP) test; type: in vivo, human; details: V2 pre-dose, 81 mg IR ASA
Description: Subjects were also measured for high sensitive C-reactive protein (“hs-CRP”) levels at Visit 1, Visit 2, Visit 3 pre-dose, Visit 3 at 24 hours, Visit 6 pre-dose and Visit 6 at 24 hours.
High Sensitive C-Reactive Protein (“hs-CRP”) was measured using a Seimens Immulite 2000® Xpi analyzer (Immulite 2000 is a registered trademark of Siemens Healthcare Diagnostic, Inc.), prior to 162.5 mg ER ASA (Durlaza®) dosing at Visit 2 pre-dose, at Visit 3 pre-dose and Visit 3 at 24-hr post-dose for the 162.5 mg ER ASA (Durlaza®) dose, and at Visit 6 pre-dose and Visit 6 at 24-hr post-dose for the 325 mg ER ASA dose.

[4] = test system: 2, 3-dinor-6-keto-PGF1α (prostacyclin); experiment: Urinary 2,3-dinor-6-keto-PGF1α (prostacyclin) excretion by GC/MS, basal and bradykinin-stimulated (Example 3); type: in vivo, human
Description: Each subject was prohibited from taking any aspirin for two weeks prior to being administered the randomly chosen drug daily for 1 week followed by a urine collection 24 hours after dosing. This protocol was repeated two additional times. […] Statistical analysis was done using Wilcoxon rank sum test for continuous variables and the Pearson test for categorical variables.

Interleukin-8 (IL-8) = experiment: Bradykinin-stimulated Interleukin-8 serum levels (Example 4); type: in vivo, human
Description: Subjects of Group 1 were randomly administered a placebo, 81 mg IR ASA and 162.5 mg IR ASA. Subjects of Group 2 were randomly administered a placebo, 81 mg ER ASA and 162.5 mg ER ASA (Durlaza®). Each subject was prohibited from taking any aspirin for two weeks prior to being administered the randomly chosen drug daily for 1 week followed by a urine collection 24 hours after dosing. This protocol was repeated two additional times. For each urine collection TxB2 and 2, 3-dinor-6-keto-PGF1α (“prostacyclin”) levels were measured using gas chromatography-mass spectrometry (“GC/MS”). Statistical analysis was done using Wilcoxon rank sum test for continuous variables and the Pearson test for categorical variables.
Interleukin-8 (“IL-8”) serum levels (and Interleukin-6 levels, not shown) were measured both prior to and after administration of 0, 81 or 162.5 mg of either IR ASA or ER ASA.

platelet aggregation [5] = details: 75 mg IR ASA; Würtz et al.; cited from earlier work
serum TxB2 = details: 75 mg IR ASA; Würtz et al.; cited from earlier work
[6] = 81 mg IR, subjects compared with Visit 6 (sub-study)
[7] = HPT Group, Visit 5, 81 mg IR ASA

## CC(=O)Oc1ccccc1C(=O)O [IR ASA, acetylsalicylic acid]
[1]
  single dose inhibition of TxB2 production: maintained during a 24-hour period
Platelet aggregation [2]; 81 mg IR QD, main study
  VerifyNow Aspirin Assay (ARU): 477 ± 72 ARU
Platelet aggregation [2]; [6]
  VerifyNow Aspirin Assay (ARU): 475 ± 102 ARU
Platelet function; 81 mg IR QD, main study
  PlateletWorks (% Agg) AA: 44 ± 19 % Agg
  PlateletWorks (% Agg) ADP: 83 ± 15 % Agg
  PlateletWorks (% Agg) Collagen: 47 ± 17 % Agg
Platelet function; [6]
  PlateletWorks (% Agg) AA: 44 ± 16 % Agg
  PlateletWorks (% Agg) ADP: 84 ± 10 % Agg
  PlateletWorks (% Agg) Collagen: 44 ± 12 % Agg
Endothelial function; [7]
  Reactive Hyperemia Index, Maximum: 2.27
  Reactive Hyperemia Index, Mean: 1.74
  Reactive Hyperemia Index, Minimum: 1.23
  RHI < 1.67 (%): (44) %
Endothelial function; HPT Group, Visit 5, 81 mg IR ASA, listed as IR aspirin
  Reactive Hyperemia Index, Mean: 1.7±0.5
Endothelial function; Visit 2, 81 mg IR ASA
  Reactive Hyperemia Index, Maximum: 3.01
  Reactive Hyperemia Index, Mean: 1.94
  Reactive Hyperemia Index, Minimum: 0.58
  RHI < 1.67 (%): (27.5) %
Endothelial function; Visit 2, 81 mg IR ASA, listed as IR aspirin
  Reactive Hyperemia Index, Mean: 1.9±0.5
[3]
  hs-CRP, Maximum: 57.4 mg/L
  hs-CRP, Mean: 9.62 mg/L
  hs-CRP, Minimum: 0.44 mg/L
[4]; 81 mg
  Bradykinin-stimulated prostacyclin levels over placebo: significantly reduced
[4]; 81 mg daily for 1 week
  Basal prostacyclin levels over placebo: significantly reduced
[4]; 162.5 mg
  Bradykinin-stimulated prostacyclin levels over placebo: significantly reduced
[4]; 162.5 mg daily for 1 week
  Basal prostacyclin levels over placebo: significantly reduced
Interleukin-8 (IL-8); 81 mg
  Bradykinin-stimulated IL-8 levels: increased
Interleukin-8 (IL-8); 162.5 mg
  Bradykinin-stimulated IL-8 levels: increased
Platelet aggregation [5]
  AA induced and collagen induced platelet aggregation 24 hours after administration: significant increase
Serum TxB2
  serum TxB2 levels 24 hours after administration: significant increase
